Patent US9067914B1, “Tropomyosin-related kinase (TRK) inhibitors” (Genzyme Corporation, priority 2013, dated 2015)
Structures can show the parent of a compound that is named as a salt.

What was measured:
TrkA = TrkA (Homo sapiens (Human), UniProt P04629); experiment: TrkA activity, off-chip mobility shift assay (LabChip 3000); type: biochemical; conditions: 55 μM ATP (ATP Km); n/d = none detected
Excerpt: (§1) Reagents and consumables were purchased from Sigma Aldrich, Carna Biosciences, or Caliper Life Sciences. All assay reaction conditions for IC50 determinations were within the linear range with respect to time and enzyme concentration. […] The LabChip 3000 separates and measures the fluorescent signal of fluorescein labeled peptide substrate and fluorescein labeled peptide product present in each well. Results are expressed as percent conversion by measuring peak height for both the substrate and product and dividing the product peak height by the sum of peak heights for both substrate and product.

TrkB = TrkB (Homo sapiens (Human), UniProt Q16620); experiment: TrkB activity, off-chip mobility shift assay (LabChip 3000); type: biochemical; conditions: 70 μM ATP (ATP Km); n/d = none detected
TrkB, sequence (Q16620 32-822): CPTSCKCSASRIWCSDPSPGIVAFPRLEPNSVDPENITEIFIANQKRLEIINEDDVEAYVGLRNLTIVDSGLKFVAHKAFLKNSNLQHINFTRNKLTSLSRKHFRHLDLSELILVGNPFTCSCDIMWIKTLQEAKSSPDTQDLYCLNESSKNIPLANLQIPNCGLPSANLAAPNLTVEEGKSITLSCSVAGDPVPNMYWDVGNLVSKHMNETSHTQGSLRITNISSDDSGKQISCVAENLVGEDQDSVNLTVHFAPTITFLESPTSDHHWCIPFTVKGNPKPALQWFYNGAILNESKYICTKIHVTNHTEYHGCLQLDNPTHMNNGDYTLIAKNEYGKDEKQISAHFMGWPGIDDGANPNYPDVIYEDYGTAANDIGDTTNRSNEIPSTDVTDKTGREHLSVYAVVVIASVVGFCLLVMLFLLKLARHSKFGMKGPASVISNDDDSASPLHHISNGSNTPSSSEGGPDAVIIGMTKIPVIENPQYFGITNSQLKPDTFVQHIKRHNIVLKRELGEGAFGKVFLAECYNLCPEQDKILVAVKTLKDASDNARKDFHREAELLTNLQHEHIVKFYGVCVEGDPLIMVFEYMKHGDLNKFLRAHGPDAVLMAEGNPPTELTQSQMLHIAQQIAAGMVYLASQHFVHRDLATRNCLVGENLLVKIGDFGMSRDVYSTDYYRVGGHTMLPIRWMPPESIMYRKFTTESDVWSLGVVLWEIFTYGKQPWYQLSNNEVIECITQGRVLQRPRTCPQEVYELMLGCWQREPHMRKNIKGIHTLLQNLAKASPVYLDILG
Excerpt: as §1

TrkA, sequence (P04629 33-796): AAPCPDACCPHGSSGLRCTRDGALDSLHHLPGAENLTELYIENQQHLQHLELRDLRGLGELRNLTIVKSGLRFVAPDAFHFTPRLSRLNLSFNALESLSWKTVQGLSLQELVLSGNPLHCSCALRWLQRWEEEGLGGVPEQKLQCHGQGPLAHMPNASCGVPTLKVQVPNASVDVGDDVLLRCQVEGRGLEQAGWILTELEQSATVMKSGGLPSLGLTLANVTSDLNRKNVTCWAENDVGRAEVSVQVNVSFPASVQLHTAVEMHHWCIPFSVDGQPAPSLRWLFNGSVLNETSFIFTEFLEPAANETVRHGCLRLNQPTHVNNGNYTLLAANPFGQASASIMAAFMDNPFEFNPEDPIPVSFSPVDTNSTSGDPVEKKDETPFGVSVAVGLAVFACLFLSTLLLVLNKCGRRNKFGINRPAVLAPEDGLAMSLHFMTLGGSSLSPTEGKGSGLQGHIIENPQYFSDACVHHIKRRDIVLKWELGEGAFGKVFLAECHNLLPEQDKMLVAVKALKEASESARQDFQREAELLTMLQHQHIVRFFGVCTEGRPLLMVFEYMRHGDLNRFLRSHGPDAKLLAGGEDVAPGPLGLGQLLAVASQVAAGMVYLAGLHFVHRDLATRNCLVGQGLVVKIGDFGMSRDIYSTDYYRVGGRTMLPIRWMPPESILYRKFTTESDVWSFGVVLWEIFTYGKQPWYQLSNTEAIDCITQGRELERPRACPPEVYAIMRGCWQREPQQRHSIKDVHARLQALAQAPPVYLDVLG

**Q.** What does the source list for `COc1ccc(COc2ccc(Cn3c(N)nc4cc(C#CC5CCCCC5)cnc43)cc2OC)cn1` [Ex. 3-41, 6-(cyclohexylethynyl)-3-(3-methoxy-4-((6-methoxypyridin-3-yl)methoxy)benzyl)-3H-imidazo[4,5-b]pyridin-2-amine]?
**A.** IC50 (TrkA): 65 nM; IC50 (TrkB): 80 nM

**Q.** Which results are given for `COc1ccc(COc2ccc(Cn3cnc4cc(N5CCN(C)CC5)ccc43)cc2OC)cn1` [Ex. 3-13, 1-(3-Methoxy-4-((6-methoxypyridin-3-yl)methoxy)benzyl)-5-(4-methylpiperazin-1-yl)-1H-benzo[d]imidazole]?
**A.** IC50 (TrkA): 1130 nM; IC50 (TrkB): 443 nM

**Q.** With `COc1cc([C@H](C)n2c(N)nc3cc(-c4cnn(C)c4)cnc32)ccc1OCc1ccc(C(F)(F)F)cc1` (single isomer, unassigned) [Ex. 3-49-6a, 3-(1-(3-methoxy-4-((4-(trifluoromethyl)benzyl)oxy)phenyl)ethyl)-6-(1-methyl-1H-pyrazol-4-yl)-3H-imidazo[4,5-b]pyridin-2-amine] as the molecule, how does the IC50 (TrkA) read?
**A.** 0.3 nM

**Q.** With `COc1cc([C@@H](C)n2c(N)nc3cc(-c4cnn(C)c4)cnc32)ccc1OCc1ccc(C(F)(F)F)cc1` (single isomer, unassigned) [Ex. 3-49-6b, 3-(1-(3-methoxy-4-((4-(trifluoromethyl)benzyl)oxy)phenyl)ethyl)-6-(1-methyl-1H-pyrazol-4-yl)-3H-imidazo[4,5-b]pyridin-2-amine] as the molecule, how does the IC50 (TrkA) read?
**A.** 5 nM

**Q.** Which IC50 (TrkA) does the source give for `COc1ccc(COc2ccc(C(C)n3c(N)nc4cc(-c5ccc(F)cc5)ccc43)cc2OC)cn1` (stereo not shown) [Ex. 3-46, 5-(4-fluorophenyl)-1-(1-(3-methoxy-4-((6-methoxypyridin-3-yl)methoxy)phenyl)ethyl)-1H-benzo[d]imidazol-2-amine] here?
**A.** 85 nM

**Q.** What about the IC50 (TrkB) of the same molecule?
**A.** 37 nM

**Q.** Which results are given for `COc1ccc(COc2ccc(Cn3c(N)nc4cc(-c5ccc(P(C)(C)=O)nc5)cnc43)cc2OC)cc1` [Ex. 3-16, (5-(2-Amino-3-(3-methoxy-4-((4-methoxybenzyl)oxy)benzyl)-3H-imidazo[4,5-b]pyridin-6-yl)pyridin-2-yl)dimethylphosphine oxide]?
**A.** IC50 (TrkA): 0.5 nM; IC50 (TrkB): 0.2 nM

**Q.** For `COc1cc(Cn2c(N)nc3cc(-c4cnn(C)c4)cnc32)ccc1OCc1ccc(SC(F)(F)F)cc1` [Ex. 3-40-2, 3-(3-methoxy-4-((4-((trifluoromethyl)thio)benzyl)oxy)benzyl)-6-(1-methyl-1H-pyrazol-4-yl)-3H-imidazo[4,5-b]pyridin-2-amine], which IC50 (TrkA) is on record?
**A.** 0.2 nM

**Q.** And the IC50 (TrkB)?
**A.** 0.6 nM

**Q.** Which results are given for `COc1ccc(COc2ccc(Cn3cnc4cc(N5CCN(C)CC5=O)ccc43)cc2OC)cn1` [Ex. 3-29, 1-(1-(3-Methoxy-4-((6-methoxypyridin-3-yl)methoxy)benzyl)-1H-benzo[d]imidazol-5-yl)-4-methylpiperazin-2-one]?
**A.** IC50 (TrkA): 6020 nM; IC50 (TrkB): 4280 nM

**Q.** Which results are given for `COc1ccc(COc2ccc(Cn3cnc4cc(N5CCC[C@H]5C(=O)O)cnc43)cc2OC)cn1` [Ex. 3-18-7, (S)-1-(3-(3-Methoxy-4-((6-methoxypyridin-3-yl)methoxy)benzyl)-3H-imidazo[4,5-b]pyridin-6-yl)pyrrolidine-2-carboxylic acid]?
**A.** IC50 (TrkA): 8 nM; IC50 (TrkB): 13 nM

**Q.** What does the source list for `COc1ccc(COc2ccc(Cn3c(N)nc4cc(N5CCN(C)CC5)ccc43)cc2OC)cn1` [Ex. 3-26, 1-(3-methoxy-4-((6-methoxypyridin-3-yl)methoxy)benzyl)-5-(4-methylpiperazin-1-yl)-1H-benzo[d]imidazol-2-amine]?
**A.** IC50 (TrkA): 590 nM; IC50 (TrkB): 315 nM

**Q.** What does the source list for `COc1cc(C(C)n2cnc3cc(-c4cnn(C)c4)ccc32)ccc1OCc1ccc(C(F)(F)F)nc1` (stereo not shown) [Ex. 3-48-1, 1-(1-(3-methoxy-4-((6-(trifluoromethyl)pyridin-3-yl)methoxy)phenyl)ethyl)-5-(1-methyl-1H-pyrazol-4-yl)-1H-benzo[d]imidazole]?
**A.** IC50 (TrkA): 102 nM; IC50 (TrkB): 14 nM

**Q.** `COc1ccc(COc2ccc(Cn3c(N)nc4cc(-c5ccncc5)ccc43)cc2OC)cc1` [Ex. 3-2-2, 1-(3-Methoxy-4-((4-methoxybenzyl)oxy)benzyl)-5-(pyridine-4-yl)-1H-benzo[d]imidazol-2-amine] was tested. Which IC50 (TrkA) did it give?
**A.** 8 nM

**Q.** What about the IC50 (TrkB) of the same molecule?
**A.** 4 nM

**Q.** With `COc1ccc(COc2ccc(Cn3cnc4cc(N5CC6(CCNCC6)C5)ccc43)cc2OC)cn1` [Ex. 3-11, 1-(3-methoxy-4-((6-methoxypyridin-3-yl)methoxy)benzyl)-5-(2,7-diazaspiro[3.5]nonan-2-yl)-1H-benzo[d]imidazole] as the molecule, how does the IC50 (TrkA) read?
**A.** 135 nM

**Q.** And the IC50 (TrkB)?
**A.** 120 nM

**Q.** Which results are given for `COc1ccc(COc2ccc(Cn3cnc4cc(N5CCC(N)CC5)cnc43)cc2OC)cn1` [Ex. 3-18-6, 1-(3-(3-Methoxy-4-((6-methoxypyridin-3-yl)methoxy)benzyl)-3H-imidazo[4,5-b]pyridin-6-yl)piperidin-4-amine]?
**A.** IC50 (TrkA): 232 nM; IC50 (TrkB): 133 nM

**Q.** Which results are given for `COc1ccc(COc2ccc(Cn3cnc4cc(C5=CC6(O)CCCN5C6)cnc43)cc2OC)cn1` (stereo not shown) [Ex. 3-32, 7-(3-(3-methoxy-4-((6-methoxypyridin-3-yl)methoxy)benzyl)-3H-imidazo[4,5-b]pyridin-6-yl)-1-azabicyclo[3.2.1]oct-6-en-5-ol]?
**A.** IC50 (TrkA): 360 nM; IC50 (TrkB): 150 nM

**Q.** For `COc1ccc(-c2cnc3c(c2)ncn3Cc2ccc(OC(C)c3ccc(OC)nc3)c(OC)c2)cn1` (stereo not shown) [Ex. 3-58-2, 3-(3-methoxy-4-(1-(6-methoxypyridin-3-yl)ethoxy)benzyl)-6-(6-methoxypyridin-3-yl)-3H-imidazo[4,5-b]pyridine formate], which IC50 (TrkA) is on record?
**A.** 160 nM

**Q.** And the IC50 (TrkB)?
**A.** 61 nM

**Q.** `COc1cc(Cn2c(N)nc3cc(-c4cnn(C)c4)cnc32)ccc1OCc1ccc(C(F)(F)F)cc1` [Ex. 3-35-3, 3-(3-methoxy-4-((4-(trifluoromethyl)benzyl)oxy)benzyl)-6-(1-methyl-1H-pyrazol-4-yl)-3H-imidazo[4,5-b]pyridin-2-amine] was tested. Which IC50 (TrkA) did it give?
**A.** 0.2 nM

**Q.** What about the IC50 (TrkB) of the same molecule?
**A.** 0.3 nM

**Q.** Which results are given for `COc1ccc(COc2ccc(Cn3c(N)nc4cc(-c5cnn(C)c5)ccc43)cc2OC)cc1` [Ex. 3-1, 1-(3-Methoxy-4-((4-methoxybenzyl)oxy)benzyl)-5-(1-methyl-1H-pyrazol-4-yl)-1H-benzo[d]imidazol-2-amine]?
**A.** IC50 (TrkA): 1 nM; IC50 (TrkB): 0.5 nM

**Q.** `COc1ccc(COc2ccc(Cn3c(N)nc4cc(-c5ccc(P(C)(C)=O)nc5)ccc43)cc2OC)cc1` [Ex. 3-3, (5-(2-Amino-1-(3-methoxy-4-((4-methoxybenzyl)oxy)benzyl)-1H-benzo[d]imidazol-5-yl)pyridin-2-yl)dimethylphosphine oxide] was tested. Which IC50 (TrkA) did it give?
**A.** 7 nM

**Q.** What about the IC50 (TrkB) of the same molecule?
**A.** 6 nM

**Q.** Which IC50 (TrkA) does the source give for `COc1ccc(COc2ccc(Cn3c(N)nc4cc(-c5cccnc5)cnc43)cc2OC)cn1` [Ex. 3-37-6, 3-(3-methoxy-4-((6-methoxypyridin-3-yl)methoxy)benzyl)-6-(pyridin-3-yl)-3H-imidazo[4,5-b]pyridin-2-amine] here?
**A.** 5 nM

**Q.** And the IC50 (TrkB)?
**A.** 2 nM

**Q.** What does the source list for `COc1ccc(COc2ccc(Cn3cnc4cc(N5CCN6CCC5CC6)cnc43)cc2OC)cn1` [Ex. 3-18-4, 4-(3-(3-Methoxy-4-((6-methoxypyridin-3-yl)methoxy)benzyl)-3H-imidazo[4,5-b]pyridin-6-yl)-1,4-diazabicyclo[3.2.2]nonane]?
**A.** IC50 (TrkA): 470 nM; IC50 (TrkB): 349 nM

**Q.** With `COc1ccc(COc2ccc(Cn3c(N)nc4cc(-c5ccccn5)cnc43)cc2OC)cn1` [Ex. 3-38, 3-(3-methoxy-4-((6-methoxypyridin-3-yl)methoxy)benzyl)-6-(pyridin-2-yl)-3H-imidazo[4,5-b]pyridin-2-amine] as the molecule, how does the IC50 (TrkA) read?
**A.** 4 nM

**Q.** What about the IC50 (TrkB) of the same molecule?
**A.** 2 nM

**Q.** For `COc1cc(C(C)n2c(N)nc3cc(C#CCCO)cnc32)ccc1OCc1ccc(C(F)(F)F)nc1` (stereo not shown) [Ex. 3-55, 4-(2-amino-3-(1-(3-methoxy-4-((6-(trifluoromethyl)pyridin-3-yl)methoxy)phenyl)ethyl)-3H-imidazo[4,5-b]pyridin-6-yl)but-3-yn-1-ol], which IC50 (TrkA) is on record?
**A.** 1 nM

**Q.** What about the IC50 (TrkB) of the same molecule?
**A.** 1 nM

**Q.** How did the IC50 (TrkA) turn out when `COc1ccc(COc2ccc(Cn3cnc4cc(-c5cnn(C6CCNCC6)c5)cnc43)cc2OC)cn1` [Ex. 3-19, 3-(3-Methoxy-4-((6-methoxypyridin-3-yl)methoxy)benzyl)-6-(1-(piperidin-4-yl)-1H-pyrazol-4-yl)-3H-imidazo[4,5-b]pyridine] was run?
**A.** 1 nM

**Q.** And the IC50 (TrkB)?
**A.** 0.9 nM

**Q.** With `COc1ccc(COc2ccc(Cn3cnc4cc(C5=CC6(C)CCCN5C6)ccc43)cc2OC)cn1` (stereo not shown) [Ex. 3-31, 1-(3-methoxy-4-((6-methoxypyridin-3-yl)methoxy)benzyl)-5-(5-methyl-1-azabicyclo[3.2.1]oct-6-en-7-yl)-1H-benzo[d]imidazole] as the molecule, how does the IC50 (TrkA) read?
**A.** 1480 nM

**Q.** And the IC50 (TrkB)?
**A.** 889 nM

**Q.** Which results are given for `COc1cc(Cn2c(N)nc3cc(-c4cnn(C)c4)cnc32)ccc1OCc1csc(C)n1` [Ex. 3-35-5, 3-(3-methoxy-4-((2-methylthiazol-4-yl)methoxy)benzyl)-6-(1-methyl-1H-pyrazol-4-yl)-3H-imidazo[4,5-b]pyridin-2-amine]?
**A.** IC50 (TrkA): 0.5 nM; IC50 (TrkB): 0.2 nM

**Q.** How did the IC50 (TrkA) turn out when `COc1ccc(COc2ccc(Cn3c(N)nc4cc(-c5ccccc5)cnc43)cc2OC)cn1` [Ex. 3-36, 3-(3-methoxy-4-((6-methoxypyridin-3-yl)methoxy)benzyl)-6-phenyl-3H-imidazo[4,5-b]pyridin-2-amine] was run?
**A.** 6 nM

**Q.** And the IC50 (TrkB)?
**A.** 4 nM

**Q.** Which results are given for `COc1ccc(COc2ccc(Cn3cnc4cc(C5CCNCC5)ccc43)cc2OC)cn1` [Ex. 3-8, 1-(3-Methoxy-4-((6-methoxypyridin-3-yl)methoxy)benzyl)-5-(piperidin-4-yl)-1H-benzo[d]imidazole]?
**A.** IC50 (TrkA): 11100 nM; IC50 (TrkB): 3460 nM

**Q.** For `COc1ccc(COc2ccc(C(C)n3c(N)nc4cc(-c5cnn(C)c5)ccc43)cc2OC)cn1` (stereo not shown) [Ex. 3-45, 1-(1-(3-methoxy-4-((6-methoxypyridin-3-yl)methoxy)phenyl)ethyl)-5-(1-methyl-1H-pyrazol-4-yl)-1H-benzo[d]imidazol-2-amine], which IC50 (TrkA) is on record?
**A.** 3 nM

**Q.** What about the IC50 (TrkB) of the same molecule?
**A.** 1 nM

**Q.** `COc1ccc(COc2ccc(Cn3c(N)nc4cc(C#CCCO)cnc43)cc2OC)cn1` [Ex. 3-42, 4-(2-amino-3-(3-methoxy-4-((6-methoxypyridin-3-yl)methoxy)benzyl)-3H-imidazo[4,5-b]pyridin-6-yl)but-3-yn-1-ol] was tested. Which IC50 (TrkA) did it give?
**A.** 7 nM

**Q.** What about the IC50 (TrkB) of the same molecule?
**A.** 3 nM
